# Test results: ChEMBL document CHEMBL3045679, “Microwave-assisted synthesis and pharmacological studies of novel 5-deazaalloxazine derivatives” (2012)
# Activity calls are given as the source filed them. The rule behind the calls is not given here.
# Experiments:
# [1] = system: Lipomyces lipofer; assay: Antifungal activity against Lipomyces lipofer NCIM 3252 at 1000 ug/disk after 72 hr by disk diffusion method; type: functional; conditions: NCIM 3252, 72 h, read-out: DIZ
# [2] = system: Lipomyces lipofer; assay: Antifungal activity against Lipomyces lipofer NCIM 3252 at 500 ug/disk after 72 hr by disk diffusion method; type: functional; conditions: NCIM 3252, 72 h, read-out: DIZ
# [3] = system: Candida albicans; assay: Antifungal activity against Candida albicans NCIM 3471 at 1000 ug/disk after 72 hr by disk diffusion method; type: functional; conditions: for zone of inhibition at 1000 µg/disc: NCIM 3471, 72 h, read-out: DIZ
# [4] = system: Candida albicans; assay: Antifungal activity against Candida albicans NCIM 3471 at 500 ug/disk after 72 hr by disk diffusion method; type: functional
# [5] = system: Rhodotorula mucilaginosa; assay: Antifungal activity against Rhodotorula mucilaginosa NCIM 3174 at 1000 ug/disk after 72 hr by disk diffusion method; type: functional; conditions: NCIM 3174, 72 h, read-out: DIZ
# [6] = system: Rhodotorula mucilaginosa; assay: Antifungal activity against Rhodotorula mucilaginosa NCIM 3174 at 500 ug/disk after 72 hr by disk diffusion method; type: functional
# [7] = system: Aspergillus flavus; assay: Antifungal activity against Aspergillus flavus NCIM 535 at 1000 ug/disk after 72 hr by disk diffusion method; type: functional; conditions: for zone of inhibition at 1000 µg/disc: NCIM 535, 72 h, read-out: DIZ
# [8] = system: Aspergillus flavus; assay: Antifungal activity against Aspergillus flavus NCIM 535 at 500 ug/disk after 72 hr by disk diffusion method; type: functional
# [9] = system: Aspergillus niger; assay: Antifungal activity against Aspergillus niger NCIM 1196 at 1000 ug/disk after 72 hr by disk diffusion method; type: functional; conditions: for zone of inhibition at 1000 µg/disc: NCIM 1196, 72 h, read-out: DIZ
# [10] = system: Aspergillus niger; assay: Antifungal activity against Aspergillus niger NCIM 1196 at 500 ug/disk after 72 hr by disk diffusion method; type: functional
# [11] = system: Penicillium chrysogenum; assay: Antifungal activity against Penicillium chrysogenum NCIM 707 at 1000 ug/disk after 72 hr by disk diffusion method; type: functional; conditions: NCIM 707, 72 h, read-out: DIZ
# [12] = system: Penicillium chrysogenum; assay: Antifungal activity against Penicillium chrysogenum NCIM 707 at 500 ug/disk after 72 hr by disk diffusion method; type: functional
# [13] = system: Streptomyces albus; assay: Antibacterial activity against Streptomyces albus NCIM 2178 at 1000 ug/disk after 24 hr by disk diffusion method; type: functional
# [14] = system: Streptomyces albus; assay: Antibacterial activity against Streptomyces albus NCIM 2178 at 500 ug/disk after 24 hr by disk diffusion method; type: functional, organism-based
# [15] = system: Bacillus cereus; assay: Antibacterial activity against Bacillus cereus NCIM 2155 at 1000 ug/disk after 24 hr by disk diffusion method; type: functional; conditions: NCIM 2155, 24 h, read-out: DIZ
# [16] = system: Bacillus cereus; assay: Antibacterial activity against Bacillus cereus NCIM 2155 at 500 ug/disk after 24 hr by disk diffusion method; type: functional; conditions: for zone of inhibition at 500 µg/disc: NCIM 2155, 24 h, read-out: DIZ
# [17] = system: Bacillus subtilis; assay: Antibacterial activity against Bacillus subtilis NCIM 2063 at 1000 ug/disk after 24 hr by disk diffusion method; type: functional; conditions: NCIM 2063, 24 h, read-out: DIZ
# [18] = system: Bacillus subtilis; assay: Antibacterial activity against Bacillus subtilis NCIM 2063 at 500 ug/disk after 24 hr by disk diffusion method; type: functional
# [19] = system: Klebsiella aerogenes; assay: Antibacterial activity against Enterobacter aerogenes NCIM 2239 at 1000 ug/disk after 24 hr by disk diffusion method; type: functional; conditions: NCIM 2239, 24 h, read-out: DIZ
# [20] = system: Klebsiella aerogenes; assay: Antibacterial activity against Enterobacter aerogenes NCIM 2239 at 500 ug/disk after 24 hr by disk diffusion method; type: functional
# [21] = system: Pseudomonas aeruginosa; assay: Antibacterial activity against Pseudomonas aeruginosa NCIM 2200 at 1000 ug/disk after 24 hr by disk diffusion method; type: functional; conditions: NCIM 2200, 24 h, read-out: DIZ
# [22] = system: Pseudomonas aeruginosa; assay: Antibacterial activity against Pseudomonas aeruginosa NCIM 2200 at 500 ug/disk after 24 hr by disk diffusion method; type: functional; conditions: for zone of inhibition at 500 µg/disc: NCIM 2200, 24 h, read-out: DIZ
# [23] = system: Escherichia coli; assay: Antibacterial activity against Escherichia coli NCIM 2065 at 1000 ug/disk after 24 hr by disk diffusion method; type: functional; conditions: NCIM 2065, 24 h, read-out: DIZ
# [24] = system: Escherichia coli; assay: Antibacterial activity against Escherichia coli NCIM 2065 at 500 ug/disk after 24 hr by disk diffusion method; type: functional; conditions: for zone of inhibition at 500 µg/disc: NCIM 2065, 24 h, read-out: DIZ
# [25] = system: Bacillus subtilis; assay: Antibacterial activity against Bacillus subtilis NCIM 2063 after 24 hr by broth dilution assay; type: functional; conditions: NCIM 2063, 24 h
# [26] = system: Klebsiella aerogenes; assay: Antibacterial activity against Enterobacter aerogenes NCIM 2239 after 24 hr by broth dilution assay; type: functional; conditions: NCIM 2239, 24 h
# [27] = system: Pseudomonas aeruginosa; assay: Antibacterial activity against Pseudomonas aeruginosa NCIM 2200 after 24 hr by broth dilution assay; type: functional; conditions: NCIM 2200, 24 h
# [28] = system: Escherichia coli; assay: Antibacterial activity against Escherichia coli NCIM 2065 after 24 hr by broth dilution assay; type: functional; conditions: NCIM 2065, 24 h
# [29] = system: Lipomyces lipofer; assay: Antifungal activity against Lipomyces lipofer NCIM 3252 after 72 hr by broth dilution assay; type: functional; conditions: NCIM 3252, 72 h
# [30] = system: Candida albicans; assay: Antifungal activity against Candida albicans NCIM 3471 after 72 hr by broth dilution assay; type: functional; conditions: NCIM 3471, 72 h
# [31] = system: Rhodotorula mucilaginosa; assay: Antifungal activity against Rhodotorula mucilaginosa NCIM 3174 after 72 hr by broth dilution assay; type: functional; conditions: NCIM 3174, 72 h
# [32] = system: Streptomyces albus; assay: Antibacterial activity against Streptomyces albus NCIM 2178 after 24 hr by broth dilution assay; type: functional; conditions: NCIM 2178, 24 h
# [33] = system: Bacillus cereus; assay: Antibacterial activity against Bacillus cereus NCIM 2155 after 24 hr by broth dilution assay; type: functional; conditions: NCIM 2155, 24 h
# [34] = system: Aspergillus niger; assay: Antifungal activity against Aspergillus niger NCIM 1196 after 72 hr by broth dilution assay; type: functional; conditions: NCIM 1196, 72 h
# [35] = system: Penicillium chrysogenum; assay: Antifungal activity against Penicillium chrysogenum NCIM 707 after 72 hr by broth dilution assay; type: functional; conditions: NCIM 707, 72 h
MIC [25] [µg/mL],MIC [26] [µg/mL],MIC [27] [µg/mL],MIC [28] [µg/mL],MIC [29] [µg/mL],MIC [33] [µg/mL],SMILES,zone of inhibition at 1000 µg/disc [1] [mm],zone of inhibition at 500 µg/disc [2] [mm],zone of inhibition at 1000 µg/disc [3] [mm],diameter of the inhibition zone (DIZ) [4],zone of inhibition at 1000 µg/disc [5] [mm],zone of inhibition at 1000 µg/disc [7] [mm],diameter of the inhibition zone (DIZ) [8],zone of inhibition at 1000 µg/disc [11] [mm],diameter of the inhibition zone (DIZ) [14],zone of inhibition at 1000 µg/disc [15] [mm],zone of inhibition at 1000 µg/disc [17] [mm],zone of inhibition at 1000 µg/disc [19] [mm],zone of inhibition at 1000 µg/disc [21] [mm],zone of inhibition at 1000 µg/disc [23] [mm],other results
7.8,125,125,125,62.5,15.6,O=c1[nH]c(=S)[nH]c2nc3ccc(Br)cc3cc12,12,8,12,inactive,12,9,inactive,12,inactive,15,14,8,12,10,"zone of inhibition at 500 µg/disc ([6]; NCIM 3174, 72 h, read-out: DIZ): 7 mm; zone of inhibition at 1000 µg/disc [9]: 10 mm; diameter of the inhibition zone (DIZ) [10]: inactive; zone of inhibition at 500 µg/disc ([12]; NCIM 707, 72 h, read-out: DIZ): 8 mm; zone of inhibition at 1000 µg/disc ([13]; NCIM 2178, 24 h, read-out: DIZ): 12 mm; zone of inhibition at 500 µg/disc [16]: 10 mm; zone of inhibition at 500 µg/disc ([18]; NCIM 2063, 24 h, read-out: DIZ): 12 mm; diameter of the inhibition zone (DIZ) [20]: inactive; diameter of the inhibition zone (DIZ) [22]: inactive; diameter of the inhibition zone (DIZ) [24]: inactive; MIC [30]: 125 µg/mL; MIC [31]: 125 µg/mL; MIC [32]: 62.5 µg/mL"
62.5,15.6,3.9,31.2,125,125,COc1ccc2nc3[nH]c(=S)[nH]c(=O)c3cc2c1,12,11,,inactive,8,,inactive,12,inactive,10,11,13,15,13,"diameter of the inhibition zone (DIZ) [3]: inactive; diameter of the inhibition zone (DIZ) [6]: inactive; diameter of the inhibition zone (DIZ) [7]: inactive; zone of inhibition at 1000 µg/disc [9]: 13 mm; zone of inhibition at 500 µg/disc ([10]; NCIM 1196, 72 h, read-out: DIZ): 11 mm; diameter of the inhibition zone (DIZ) [12]: inactive; diameter of the inhibition zone (DIZ) [13]: inactive; diameter of the inhibition zone (DIZ) [16]: inactive; diameter of the inhibition zone (DIZ) [18]: inactive; diameter of the inhibition zone (DIZ) [20]: inactive; zone of inhibition at 500 µg/disc [22]: 9 mm; zone of inhibition at 500 µg/disc [24]: 9 mm; MIC [34]: 7.8 µg/mL; MIC [35]: 125 µg/mL"
62.5,3.9,31.2,7.8,31.2,31.2,COc1ccc2nc3[nH]c(=O)[nH]c(=O)c3cc2c1,11,9,10,,10,9,inactive,9,inactive,12,9,13,13,12,"zone of inhibition at 500 µg/disc ([4]; NCIM 3471, 72 h, read-out: DIZ): 9 mm; diameter of the inhibition zone (DIZ) [6]: inactive; diameter of the inhibition zone (DIZ) [9]: inactive; diameter of the inhibition zone (DIZ) [10]: inactive; diameter of the inhibition zone (DIZ) [12]: inactive; diameter of the inhibition zone (DIZ) [13]: inactive; zone of inhibition at 500 µg/disc [16]: 9 mm; diameter of the inhibition zone (DIZ) [18]: inactive; zone of inhibition at 500 µg/disc ([20]; NCIM 2239, 24 h, read-out: DIZ): 10 mm; zone of inhibition at 500 µg/disc [22]: 9 mm; zone of inhibition at 500 µg/disc [24]: 10 mm; MIC [30]: 31.2 µg/mL; MIC [31]: 15.6 µg/mL; MIC [35]: 62.5 µg/mL"
